Reference: patent US20080176811A1, “NOVEL FLAVONE GLYCOSIDE DERIVATIVES FOR USE IN COSMETICS, PHARMACEUTICALS AND NUTRITION” (priority 2000, published 2008)
Entries after “also recorded” stand apart in the source; their conditions may differ. Like-named read-outs stand apart in the source and are kept apart here.

What was measured:
[1] = test system: fungal tyrosinase (Sigma); assay: Inhibition of tyrosinase activity (L-DOPA to dopachromium, absorption at 475 nm); assay type: biochemical; details: for Residual tyrosinase activity in %: without active substance = 100%
Experimental: Tyrosinases physiologially catalyze an important step in the synthesis of melanin (L-dopa to L-dopaquinone which is further cyclized and re-reacted by a tyrosinase to dopachromium). Accordingly, inhibition of the tyrosinase can lead to a skin lightening effect.
The activity of fungal tyrosinase (Sigma) was determined in the presence of various concentrations of the active substances according to the invention by enzymatic reaction of LDOPA to dopachromium. The absorption maximum of dopachromium (red-brown) is at λ=475 nm. The linear increase in the absorption (A) of the dopachromium per unit of time (t) is a measure of the activity of the tyrosinase (ΔN/Δt). The activity of the tyrosinase in the absence of the active substances (ΔA1/Δt1) was used as reference (100%). Under analogous conditions, the residual tyrosinase activity was determined in the presence of the active substances (ΔA2/Δt2). Each measurement was carried out twice in parallel runs. The variation of the results of the method is ca.±10%.
50 mM KH2PO4 buffer in bidist. water (adjustment to pH 6.5 with 1 M aqueous KOH) 2.5 mM L-DOPA in bidist. water 340 U/ml tyrosinase stock solution in cold KH2PO4 buffer, pH 6.5. Stock solutions of the active substance to be tested in bidist. water or ethanol in which the concentration of the active substance was 10 times higher than indicated in the line “active substance concentration in the test system” under “results”.
Like the tyrosinase stock solution, the reaction cocktail was prepared just before the beginning of the test. The tyrosinase stock solution has to be kept in a refrigerator. The L-DOPA solutions should be stored in darkness and in tightly closed containers in the absence of oxygen. If it turns grey in color (oxidation by atmospheric oxygen), the solution must be freshly prepared.
33 μl tyrosinase stock solution 100 μl active substance stock solution reaction cocktail to 1000 μl
The activity of the tyrosinase in the absence of the active substances was used as reference (100%). All samples were thoroughly mixed in a Vibrofix before the beginning of the measurement. The pH value was monitored and if necessary was adjusted to pH 6.5. The measurement was carried out with a Kontron Uvikon 860 photometer. The absorption of the dopachromium was detected for 5 mins. at 25° C. at the absorption maximum X of 475 nm, the measuring time being 20-30 s.

[2] = test system: Dermal fibroblasts of human skin; assay: Phototoxicity, MTT test after simulated sunlight (10 J UV-A/cm^2); assay type: cell-based
Experimental: Dermal fibroblasts of human skin were cultivated with increasing concentrations of retinol (Table 1), 6-O-naringin-(p-Cl-phenylacetic acid)ester (Table 2) and 6-O-naringin-(3-phenylpropionic acid)-ester (Table 3). The phototoxicity of the substances was measured by an MTT test. To determine phototoxicity, the treated cells were exposed to simulated sunlight corresponding to a dose of 10 J UV-A/cm^2. The vitality of untreated cells was put at 100% and all other values were related to that value.
The exposure of the cells was carried out with a sunlight simulator from the emission spectrum of which the UV-A component of the radiation was measured for quantification. The advantage of this experimental design is the fact that the complete spectrum of the sunlight is used so that the everyday situation is excellently simulated. By contrast, many other research laboratories use pure UV-A and for UV-B lamps.

MMP-1-mRNA = assay: Light-induced expression of MMP-1-mRNA in skin models (Northern blot); assay type: cell-based; details: for MMP 1 expression: 0 ppm unexposed = 100; for percentage change in the expression of MMP: by comparison with exposed, untreated cultures
Experimental: (§1) To this end, the quantity of mRNA was quantified for MMP1, TIMP and Colaα1. Skin models were treated with the test substances for 12 hours and then exposed to simulated sunlight corresponding to a dose of 10 J UV-A/cm^2. After another 48 hours in the presence of the active substances, the RNA of the cells was prepared and analyzed by Northern blots with specific gene probes. To monitor the quantity of RNA used in the experiments, Northern blots were carried out with an 18S-specific gene probe. To quantify the signal intensities, the autoradiograms were evaluated by densitometry and the values of the signals for MMP1, TIMP and Colα1, were related to the associated values of the 18S signals. The figures in Table 1 represent the densitometric quantification of the signals of a Northern blot after normalization thereof.

TIMP-mRNA = assay: Light-induced expression of TIMP-mRNA in skin models (Northern blot); assay type: cell-based; details: for TIMP expression: 0 ppm unexposed = 100; for percentage change in the expression of TIMP: by comparison with exposed, untreated cultures
Experimental: as §1

Colα1-mRNA = assay: Light-induced expression of Colα1-mRNA in skin models (Northern blot); assay type: cell-based; details: for Collagen expression: exposed, 0 ppm unexposed = 100; for percentage change in the expression of Colα1: by comparison with exposed, untreated cultures
Experimental: as §1

fibroblasts = assay: Collagen production at protein level, fibroblasts in three-dimensional culture system; assay type: cell-based; details: 5 days, treated against untreated cultures
Experimental: On the sixth day, the quantity of collagen formed compared with non-collagen protein was determined via the incorporation of titrated protein.

Question: With `C[C@@H]1O[C@@H](O[C@H]2[C@H](Oc3cc(O)c4c(c3)O[C@H](c3ccc(O)cc3)CC4=O)O[C@H](COC(=O)CCc3ccccc3)[C@@H](O)[C@@H]2O)[C@H](O)[C@H](O)[C@H]1O` [6-O-naringin-(3-phenylpropionic acid)-ester] as the compound, how does the “Residual tyrosinase activity in %” value ([1]; active substance 0.005% (w/v in bidist H2O)) read?
Answer: 98.9%

Question: And the “Residual tyrosinase activity in %” value ([1]; active substance 0.05% (w/v in bidist H2O))?
Answer: 69.1%

Question: What about the “Residual tyrosinase activity in %” value ([1]; active substance 0.5% (w/v in bidist H2O)) of the same compound?
Answer: 0.7%

Question: And the “IC 50 (tyrosinase)” value ([1]; w/v in bidist H2O)?
Answer: 0.18%

Question: What about the “Phototoxicity (in words)” value [2] of the same compound?
Answer: only show toxic effects in relatively high concentrations

Question: And the “MMP 1 expression” value (MMP-1-mRNA; 10 ppm, exposed)?
Answer: 167%

Question: And the “sunlight-induced expression of MMP-1 (in words)” value (MMP-1-mRNA; 100 ppm)?
Answer: reduced the sunlight-induced expression of MMP-1 to the level of the unexposed, untreated sample

Question: And the “MMP 1 expression” value (MMP-1-mRNA; 100 ppm, exposed)?
Answer: 87%

Question: And the “percentage change in the expression of MMP” value (MMP-1-mRNA; 100 ppm)?
Answer: −37%

Question: What about the TIMP expression (TIMP-mRNA; 10 ppm, exposed) of the same compound?
Answer: 104%

Question: And the “TIMP production (in words)” value (TIMP-mRNA; 100 ppm)?
Answer: increased TIMP production considerably

Question: And the “increase in expression of TIMP” value (TIMP-mRNA; 100 ppm, exposed)?
Answer: around 35%

Question: And the TIMP expression (TIMP-mRNA; 100 ppm, exposed)?
Answer: 134%

Question: What about the “percentage change in the expression of TIMP” value (TIMP-mRNA; 100 ppm) of the same compound?
Answer: 50%

Question: What about the Collagen expression (Colα1-mRNA; 10 ppm) of the same compound?
Answer: 74%

Question: And the “expression of Colα1 (in words)” value (Colα1-mRNA; 100 ppm)?
Answer: increased to the level of the unexposed, untreated culture

Question: What about the Collagen expression (Colα1-mRNA; 100 ppm) of the same compound?
Answer: 99%

Question: And the “percentage change in the expression of Colα1” value (Colα1-mRNA; 100 ppm)?
Answer: 64%

Question: What about the “Increase in collagen production” value (fibroblasts; 1 ppm) of the same compound?
Answer: 8%

Question: What about the “Increase in collagen production” value (fibroblasts; 10 ppm) of the same compound?
Answer: 8%

Question: What about the “Increase in collagen production” value (fibroblasts; 100 ppm) of the same compound?
Answer: 19%

Question: How did the “Residual tyrosinase activity in %” value ([1]; active substance 0.01% (w/v in 98% ethanol)) turn out when `CC1OC(OC2C(Oc3cc(O)c4c(c3)OC(c3ccc(O)cc3)CC4=O)OC(COC(=O)Cc3ccc(Cl)cc3)C(O)C2O)C(O)C(O)C1O` (stereo not shown) [6-O-naringin-(p-Cl-phenylacetic acid)-ester] was run?
Answer: 45.1%

Question: And the “Residual tyrosinase activity in %” value ([1]; active substance 0.1% (w/v in 98% ethanol))?
Answer: 15.4%

Question: What about the “Vitality (%; in brackets: SEM)” value ([2]; 5 ppm, 10 J UV-A/cm^2, untreated cells = 100%) of the same compound?
Answer: 115 (15) %

Question: What about the “Vitality (%; in brackets: SEM)” value ([2]; 10 ppm, 10 J UV-A/cm^2, untreated cells = 100%) of the same compound?
Answer: 96 (17.2) %

Question: What about the “Vitality (%; in brackets: SEM)” value ([2]; 50 ppm, 10 J UV-A/cm^2, untreated cells = 100%) of the same compound?
Answer: 81 (8.3) %

Question: And the “Vitality (%; in brackets: SEM)” value ([2]; 100 ppm, 10 J UV-A/cm^2, untreated cells = 100%)?
Answer: 3 (1.7) %

Question: What about the “Vitality (%; in brackets: SEM)” value ([2]; 500 ppm, 10 J UV-A/cm^2, untreated cells = 100%) of the same compound?
Answer: 3 (1.8) %

Question: What about the “Phototoxicity (in words)” value ([2]; compared with retinol, 10 J UV-A/cm^2) of the same compound?
Answer: only show toxic effects in relatively high concentrations

Question: What about the “MMP 1 expression” value (MMP-1-mRNA; 5 ppm, exposed (10 J UV-A/cm^2)) of the same compound?
Answer: 129%

Question: What about the “sunlight-induced expression of MMP-1 (in words)” value (MMP-1-mRNA; 50 ppm) of the same compound?
Answer: very effectively reduced

Question: What about the “MMP 1 expression” value (MMP-1-mRNA; 50 ppm, exposed) of the same compound?
Answer: 40%

Question: And the “percentage change in the expression of MMP” value (MMP-1-mRNA; 50 ppm)?
Answer: −70%

Question: And the TIMP expression (TIMP-mRNA; 5 ppm, exposed)?
Answer: 62%

Question: What about the “expression of TIMP (in words)” value (TIMP-mRNA; 50 ppm) of the same compound?
Answer: only slightly affected; also recorded: only a slight effect

Question: What about the TIMP expression (TIMP-mRNA; 50 ppm, exposed) of the same compound?
Answer: 77%

Question: And the “percentage change in the expression of TIMP” value (TIMP-mRNA; 50 ppm)?
Answer: −15%

Question: And the Collagen expression (Colα1-mRNA; 5 ppm)?
Answer: 56%

Question: And the Collagen expression (Colα1-mRNA; 50 ppm)?
Answer: 79%

Question: And the “percentage change in the expression of Colα1” value (Colα1-mRNA; 50 ppm)?
Answer: 27%

Question: And the “expression of Colα1 (in words)” value (Colα1-mRNA; 50 ppm, in relation to the exposed, untreated sample)?
Answer: distinctly increased

Question: And the “Increase in collagen production” value (fibroblasts; 5 ppm)?
Answer: −3%

Question: And the “Increase in collagen production” value (fibroblasts; 50 ppm)?
Answer: 41%

Question: What does the source list for `CC1=C(/C=C/C(C)=C/C=C/C(C)=C/CO)C(C)(C)CCC1` [retinol, reference compound]?
Answer: Phototoxicity (in words) [2]: toxic in very low concentrations; Vitality (%; in brackets: SEM) ([2]; human, 0.0028 ppm): 99 (7.4) %; Vitality (%; in brackets: SEM) ([2]; human, 0.014 ppm): 95 (19.8) %; Vitality (%; in brackets: SEM) ([2]; human, 0.028 ppm): 80 (25.9) %; Vitality (%; in brackets: SEM) ([2]; human, 0.14 ppm): 28 (11.8) %; Vitality (%; in brackets: SEM) ([2]; human, 0.28 ppm): 4 (2.1) %
